In patent US6368598B1, “Drug complex for treatment of metastatic prostate cancer” (priority 1996, dated 2002):
Residues, ends and D or L forms follow the SMILES beside them. *: point of attachment. pNA = O=[N+]([O-])c1ccc(N*)cc1; MeOSuc = COC(=O)CCC(=O)*

Assays:
[1] = test system: DU-145 prostate cancer cells; test: Effect of TG and RT on proliferation of DU-145 prostate cancer cells (cell count, trypan blue); assay type: cell-based, human; details: for Total Number of Cells per Dish: counted at 48 hours
PC3 cells = test: Effect of TG and RT on clonogenic survival of PC3 cells; assay type: cell-based, human; details: for Surviving Fraction (SF) (PE treated/PE control): plated at 24 hours
Procedure: PC3 and DU-145 androgen-independent human prostate cancer cell lines obtained from the American Tissue Culture Collection (ATCC) are used for in vitro studies. Cells are grown as monolayer cultures in RPMI 1640 medium supplemented with 10% fetal bovine serum, 2 mM glutamine and antibiotics. Radiation survival curves and radiation-induced apoptotic DNA fragmentation patterns in these cell lines are already established in the laboratory. Cells are treated with this drug, carrier-peptide, or carrier-peptide-drug complex with or without radiation. After 24 hours, the cells are trypsinized and plated for clonogenic survival studies. Apoptotic response to the treatments is determined by: 1) agarose gel electrophoresis analysis of DNA fragmentation at 48 and 72 hours after treatment, 2) morphological observations after staining with DAPI, and 3) terminal deoxytransferase-mediated dUTP Nick End Labeling (TUNEL) assay.

[2] = test system: human DU-145 prostate carcinoma xenograft; test: Growth delay of human DU-145 prostate carcinoma xenograft in male SCID mice; assay type: in vivo
Procedure: Two human prostate carcinoma tumor lines grown as xenografts in male SCID mice are used: the human DU-145 prostate carcinoma which is not androgen dependent and the human LNCaP prostate carcinoma which produces PSA and has a well characterized androgen receptor and response to androgens. The drug complexes are administered up to maximally tolerated doses alone and in conjunction with fractionated radiation therapy (^137Cs Gamma Cell 40) delivered to the tumor bearing limb.
The progress of each tumor is assessed thrice weekly by caliper measurements until the tumors reach 2000 mm^3. Tumor growth delay is calculated as the number of days for each tumor to reach a volume of 500 mm^3 as compared to untreated controls. The efficacy of combination treatments is assessed using isobologram analysis for determination of additivity/synergy.
Male SCID mice bearing the human DU-145 prostate carcinoma Xenograft growing subcutaneously in a hind-limb were treated daily with TG (0.5 mg/kg) by IP injection from day 4-18 post tumor cell implantation. Some animal groups also received fractionated RT locally to the tumor bearing region on days 7-11 or days 7-11 and 14-18.

[3] = test system: rat and human androgen independent prostate cancer cell lines; details: 500 nm thapsigargin, cited from earlier work
[4] = test system: Ca++-ATPase pumps of the endoplasmic reticulum; details: cited from earlier work
[5] = test system: pumps of erythrocytes, plasma, or mitochondrial membranes; details: cited from earlier work
[6] = after administration to a person; cited from earlier work
[7] = Cleavage in newborn calf serum; assay type: in vitro ADME
Procedure: (§1) A tyrosine tripeptide (compound 1 in FIG. 5) was prepared using methods known to those in the peptide chemistry art. It is known that PSA cleaves its para-nitroanilide (pNA) derivative at the tyrosine site (compound 2 in FIG. 5). (Christensson, A. et al., Eur. J Biochem., 194:755-763 (1990)). It is also known that the “released” pNA makes it possible to study this reaction colormetrically.

[8] = Cleavage in pooled human serum; assay type: in vitro ADME
Procedure: as §1

C/C=C(/C)C(=O)O[C@H]1C(C)=C2[C@H]([C@@H]1OC(=O)CCCCCCC)[C@@](C)(OC(C)=O)C[C@H](OC(=O)CCC)[C@@]1(O)[C@H]2OC(=O)[C@@]1(C)O [Thapsigargin]
Total Number of Cells per Dish ([1]; TG 20 nM, 0 Gy): 1.0 10^6 | Total Number of Cells per Dish ([1]; TG 20 nM, 2 Gy 2 hours after TG): 0.8 10^6 | Total Number of Cells per Dish ([1]; TG 20 nM, 4 Gy 2 hours after TG): 0.3 10^6 | Total Number of Cells per Dish ([1]; TG 20 nM, 8 Gy 2 hours after TG): 0.4 10^6 | Total Number of Cells per Dish ([1]; TG 100 nM, 0 Gy): 0.7 10^6 | Total Number of Cells per Dish ([1]; TG 100 nM, 2 Gy 2 hours after TG): 0.5 10^6 | Total Number of Cells per Dish ([1]; TG 100 nM, 4 Gy 2 hours after TG): 0.5 10^6 | Total Number of Cells per Dish ([1]; TG 100 nM, 8 Gy 2 hours after TG): 0.4 10^6 | Total Number of Cells per Dish ([1]; TG 400 nM, 0 Gy): 0.7 10^6 | Total Number of Cells per Dish ([1]; TG 400 nM, 2 Gy 2 hours after TG): 0.4 10^6 | Total Number of Cells per Dish ([1]; TG 400 nM, 4 Gy 2 hours after TG): 0.3 10^6 | Total Number of Cells per Dish ([1]; TG 400 nM, 8 Gy 2 hours after TG): 0.3 10^6 | cell proliferation in vitro (result in words) ([1]; summary of Table 1): inhibits cell proliferation in vitro | Surviving Fraction (SF) (PE treated/PE control) (PC3 cells; TG 20 nM, 0 Gy): 0.69 | NET survival (SF/TG toxicity) (PC3 cells; TG 20 nM, 2 Gy): 0.61 | Surviving Fraction (SF) (PE treated/PE control) (PC3 cells; TG 20 nM, 2 Gy): 0.42 | NET survival (SF/TG toxicity) (PC3 cells; TG 20 nM, 4 Gy): 0.33 | Surviving Fraction (SF) (PE treated/PE control) (PC3 cells; TG 20 nM, 4 Gy): 0.23 | Surviving Fraction (SF) (PE treated/PE control) (PC3 cells; TG 50 nM, 0 Gy): 0.80 | NET survival (SF/TG toxicity) (PC3 cells; TG 50 nM, 2 Gy): 0.49 | Surviving Fraction (SF) (PE treated/PE control) (PC3 cells; TG 50 nM, 2 Gy): 0.39 | NET survival (SF/TG toxicity) (PC3 cells; TG 50 nM, 4 Gy): 0.29 | Surviving Fraction (SF) (PE treated/PE control) (PC3 cells; TG 50 nM, 4 Gy): 0.23 | Surviving Fraction (SF) (PE treated/PE control) (PC3 cells; TG 100 nM, 0 Gy): 0.62 | NET survival (SF/TG toxicity) (PC3 cells; TG 100 nM, 2 Gy): 0.40 | Surviving Fraction (SF) (PE treated/PE control) (PC3 cells; TG 100 nM, 2 Gy): 0.25 | NET survival (SF/TG toxicity) (PC3 cells; TG 100 nM, 4 Gy): 0.30 | Surviving Fraction (SF) (PE treated/PE control) (PC3 cells; TG 100 nM, 4 Gy): 0.18 | Surviving Fraction (SF) (PE treated/PE control) (PC3 cells; TG 200 nM, 0 Gy): 0.58 | NET survival (SF/TG toxicity) (PC3 cells; TG 200 nM, 2 Gy): 0.43 | Surviving Fraction (SF) (PE treated/PE control) (PC3 cells; TG 200 nM, 2 Gy): 0.25 | NET survival (SF/TG toxicity) (PC3 cells; TG 200 nM, 4 Gy): 0.22 | Surviving Fraction (SF) (PE treated/PE control) (PC3 cells; TG 200 nM, 4 Gy): 0.13 | Surviving Fraction (SF) (PE treated/PE control) (PC3 cells; TG 400 nM, 0 Gy): 0.60 | NET survival (SF/TG toxicity) (PC3 cells; TG 400 nM, 2 Gy): 0.42 | Surviving Fraction (SF) (PE treated/PE control) (PC3 cells; TG 400 nM, 2 Gy): 0.25 | NET survival (SF/TG toxicity) (PC3 cells; TG 400 nM, 4 Gy): 0.22 | Surviving Fraction (SF) (PE treated/PE control) (PC3 cells; TG 400 nM, 4 Gy): 0.13 | clonogenic cell survival in vitro (result in words) (PC3 cells; summary of Table 2): inhibits clonogenic cell survival in vitro | tumor growth delay, combination with RT ([2]; TG 0.5 mg/kg daily IP day 4-18 with fractionated RT days 7-11): the independent effects of TG and RT were additive | tumor growth delay, combination with RT extended to 2 weeks ([2]; TG 0.5 mg/kg daily IP day 4-18 with fractionated RT days 7-11 and 14-18): the additional benefit of the TG administration was maintained | tumor growth delay ([2]; TG 0.5 mg/kg daily IP, day 4-18, alone, FIG. 1): produced a measurable tumor growth delay | apoptosis ([3]; within 72 to 96 hours): undergo apoptosis | clonogenic potential ([3]; within 72 to 96 hours): lose their clonogenic potential | intracellular Ca++ ([3]; lines with or without p53 expression): elevation of intracellular Ca^++ | inhibition of Ca++-ATPase pumps of the endoplasmic reticulum [4]: specifically inhibits | inhibition of pumps of erythrocytes, plasma, or mitochondrial membranes [5]: not

NCCCCNCCCF [N-3 fluoropropylputrescine]
distribution to prostate and bone relative to blood and muscle [6]: selectively distributed to prostate and bone

COC(=O)CCC(=O)N[C@@H](CCCNC(=N)N)C(=O)N1CCC[C@H]1C(=O)N[C@@H](Cc1ccc(O)cc1)C(=O)Nc1ccc([N+](=O)[O-])cc1 [compound 2] (MeOSuc-Arg-Pro-Tyr-pNA)
cleavage, release of pNA [7]: neither newborn calf serum, nor pooled human serum cleaved | cleavage, release of pNA [8]: neither newborn calf serum, nor pooled human serum cleaved
